# From publication PMC10244169, “Psychedelics promote plasticity by directly binding to BDNF receptor TrkB” (Nature Neuroscience, 2023)
# Legend:
# [1] = biological target: T1, WT:Y433F heterodimers (Y433F^+/−) (Rattus norvegicus, UniProt Q63604, Y433F); assay: Split-luciferase PCA of TrkB dimerization in N2a cells; type: cell-based; settings: for TrkB dimerization time course, group mean (time 0 = 100): TRKB.Y433F; for TrkB dimerization: WT:Y433F heterodimers; for TrkB dimerization (PCA), group mean (vehicle = 100): Y433F+/-
# T1 construct: expressed in transfected cells; host or cells: N2a
# T1 sequence (Q63604 32-821 Y433F): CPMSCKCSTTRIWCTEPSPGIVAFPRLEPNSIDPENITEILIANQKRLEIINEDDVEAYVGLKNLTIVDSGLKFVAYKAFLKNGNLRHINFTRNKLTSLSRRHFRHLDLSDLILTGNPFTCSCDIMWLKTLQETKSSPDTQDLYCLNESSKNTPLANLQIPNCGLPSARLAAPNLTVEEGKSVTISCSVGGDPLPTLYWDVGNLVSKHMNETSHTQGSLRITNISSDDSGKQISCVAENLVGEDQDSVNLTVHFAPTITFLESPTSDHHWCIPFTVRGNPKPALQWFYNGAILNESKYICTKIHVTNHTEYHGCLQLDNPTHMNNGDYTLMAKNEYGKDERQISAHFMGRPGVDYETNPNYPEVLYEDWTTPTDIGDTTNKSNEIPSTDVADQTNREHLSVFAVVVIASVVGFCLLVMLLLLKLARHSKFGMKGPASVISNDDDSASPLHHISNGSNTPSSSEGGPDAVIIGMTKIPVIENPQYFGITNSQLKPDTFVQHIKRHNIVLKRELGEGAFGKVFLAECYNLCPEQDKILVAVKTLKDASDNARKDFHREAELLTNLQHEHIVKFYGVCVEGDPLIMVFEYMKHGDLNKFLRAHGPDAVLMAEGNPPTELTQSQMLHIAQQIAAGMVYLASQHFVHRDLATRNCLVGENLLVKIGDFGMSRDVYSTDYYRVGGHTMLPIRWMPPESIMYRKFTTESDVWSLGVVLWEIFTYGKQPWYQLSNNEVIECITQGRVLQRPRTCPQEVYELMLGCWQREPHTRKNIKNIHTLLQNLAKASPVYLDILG
# T1 sequence (Q63604 32-821, stated change not applied): as the sequence (Q63604 32-821 Y433F) above, with F402Y counted along it
# Outline: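 N2a cells transiently co-transfected with split hGLuc-tagged rat TrkB pairs (WT/WT or Y433F/WT) for dimerization; Ketanserin, M100907 or TRKB.FC added 10 min before treatment. Luminescence read after injection of native coelenterazine ([…] final).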
# TrkB pY816 = assay: ELISA of TrkB phosphorylation (pY816) in neuronal cultures; type: cell-based, rat; settings: cortical and hippocampal cultures
# Method: The phosphorylation of TrkB (pY816) and interaction with PLCγ1 were assessed by enzyme-linked immunosorbent assay (ELISA) as previously described[11],[80],[81] with minor modifications. Briefly, white 96-well plates (PerkinElmer, OptiPlate 96F-HB) were precoated with goat anti-TrkB (R&D systems, AF1494; 1:500, overnight, 4 °C) antibody in carbonate buffer (pH 9.8) and blocked with 3% BSA in PBS with 0.1% Tween-20 (PBS-T) for 2 h at room temperature. […] Samples were incubated overnight at 4 °C, and 24 h later plates were washed with PBS-T and incubated with either rabbit anti-phospho-TrkB(Tyr816) (Cell Signaling Technology, 4168S; 1:2,000), rabbit anti-PLCγ1 (Cell Signaling Technologies, 5690S; 1:2,000) or rabbit anti-Trk (Cell Signaling Technologies, 92991; 1:2,000) antibodies overnight at 4 °C. After washing with PBS-T, plates were incubated with HRP-conjugated goat anti-rabbit (Bio-Rad, 170–5046; 1:5,000, 1 h, room temperature) antibody, followed by more washing with PBS-T. Finally, the chemiluminescent signal was read after brief incubation with Pierce ECL substrate (Thermo Fisher Scientific, 32106). Luminescence from blank wells that contained all reagents but the sample lysates was used to determine background signal.
# BDNF protein = BDNF protein ELISA in cortical neurons; type: cell-based, rat; settings: for BDNF protein, group mean (5g): LSD 100 nM, vehicle 100
# Method: To determine BDNF protein concentrations, ELISA was run as previously described[83] with minor modifications. […] Samples were diluted in Hanks buffer (125 mM NaCl, 5 mM KCl, 1.2 mM NaH2PO4, 1 mM CaCl2, 1.2 mM MgCl2, 1 μM ZnCl2, 10 mM glucose, 25 mM HEPES and 0.25% BSA, pH 7.4). Samples and BDNF standards (10–1,000 pg ml^−1, Peprotech) were acidified at room temperature to pH 3 by adding 1 M HCl and neutralized to pH 7 after 15 min with 1 M NaOH. A Maxisorb Nunc ELISA plate (Thermo Scientific) previously coated with a primary BDNF antibody (1:1,000 in carbonate buffer, overnight, 4 °C) and blocked (2% BSA and 0.1% Triton X-100 in Hanks buffer, 2 h, room temperature). Then, 170 µl of samples and standards were added to the plate with 30 µl of the secondary POD-conjugated BDNF antibody (1:1,000 in 6.66% BSA and 0.66% Triton X-100 in Hanks buffer). The BDNF antibodies were received from Roche and have been previously described. After incubating overnight at 4 °C the plate was washed with PBS-T. BM Blue POD substrate (Roche, 54827-17-1) was added to each well, and the colorimetric reaction was stopped after 20 min by adding 50 µl of 1 M H2SO4. Absorbance was measured at […] with a plate reader (Varioskan Flash, Thermo Scientific).
# mice = assay: Head-twitch response; type: in vivo, mouse; set-up: key to Mean, figure 7c (head-twitch response) / Mean Diff., figure 7d, Vehicle:Saline vs. Vehicle:LSD / Mean Diff., figure 7d, Vehicle:Saline vs. M100907:Saline / Mean Diff., figure 7d, M100907:Saline vs. M100907:LSD / Mean, figure 7d (head-twitch response) / Mean Diff., figure 7c, WT:Saline vs. WT:LSD / Head-twitch response, Mean: head twitch counts (scored every 2 min over 30 min); settings: for Mean, figure 7c (head-twitch response): LSD group
# Method: Immediately after the last injection, the animals were placed inside a transparent chamber and their activity video-recorded for 30 min. Similarly to previous studies, head twitches were scored as counts every 2 min by observers blinded to treatments and genotypes.
compound,measurement,setting,value
"CCN(CC)C(=O)C1C=C2c3cccc4[nH]cc(c34)CC2N(C)C1 (stereo not drawn) [LSD, lysergic acid diethylamide]","TrkB dimerization time course, group mean (time 0 = 100)",[1]; time 15,129.4
same,"TrkB dimerization time course, group mean (time 0 = 100)",[1]; time 60,136.7
same,"TrkB dimerization time course, group mean (time 0 = 100)",[1]; time 120,108.3
same,"TrkB dimerization time course, group mean (time 0 = 100)",[1]; time 240,108.9
same,"TrkB dimerization time course, group mean (time 0 = 100)",[1]; time 480,60.33
same,TrkB dimerization,[1],this effect is abolished
same,"TrkB dimerization (PCA), group mean (vehicle = 100)",[1]; 1nM,113.3
same,"TrkB dimerization (PCA), group mean (vehicle = 100)",[1]; 10nM,121
same,"TrkB dimerization (PCA), group mean (vehicle = 100)",[1]; 100nM,118.1
same,"TrkB dimerization (PCA), group mean (vehicle = 100)",[1]; 1uM,109.7
same,TrkB phosphorylation (pY816),TrkB pY816,increases phosphorylation of TrkB tyrosine 816 (pY816)
same,"BDNF protein, group mean (5g)",BDNF protein; 5 min,101.1
same,"BDNF protein, group mean (5g)",BDNF protein; 1 h,105.6
same,"BDNF protein, group mean (5g)",BDNF protein; 24 h,146.4
same,"BDNF protein, group mean (5g)",BDNF protein; 72 h,104.8
same,BDNF protein levels,BDNF protein; after LSD treatment,elevated at 24 h
same,"Mean, figure 7d (head-twitch response)",mice; M100907:LSD group,0.4
same,"Mean, figure 7d (head-twitch response)",mice; Vehicle:LSD group,33
same,"Mean, figure 7c (head-twitch response)",mice; WT mice,76.8
same,"Mean Diff., figure 7c, WT:Saline vs. WT:LSD","mice; WT mice, saline minus LSD, Bonferroni's multiple comparisons test",-73.8
same,"Mean, figure 7c (head-twitch response)",mice; Y433F+/- mice,67.8
same,"Mean Diff., figure 7c, Y433F+/-:Saline vs. Y433F+/-:LSD","mice; Y433F+/- mice, saline minus LSD, Bonferroni's multiple comparisons test",-63.2
same,head-twitch response,mice; Y433F^+/− mice treated with LSD 0.1 mg kg^−1,occurs normally
same,"Head-twitch response, Mean","mice; ext fig 7c, TrkB.WT mice, Time (min) 2",2.6
same,"Head-twitch response, Mean","mice; ext fig 7c, TrkB.WT mice, Time (min) 4",6.4
same,"Head-twitch response, Mean","mice; ext fig 7c, TrkB.WT mice, Time (min) 6",10.6
same,"Head-twitch response, Mean","mice; ext fig 7c, TrkB.WT mice, Time (min) 8",7.8
same,"Head-twitch response, Mean","mice; ext fig 7c, TrkB.WT mice, Time (min) 10",6.6
same,"Head-twitch response, Mean","mice; ext fig 7c, TrkB.WT mice, Time (min) 12",7.6
same,"Head-twitch response, Mean","mice; ext fig 7c, TrkB.WT mice, Time (min) 14",5.4
same,"Head-twitch response, Mean","mice; ext fig 7c, TrkB.WT mice, Time (min) 16",4.8
same,"Head-twitch response, Mean","mice; ext fig 7c, TrkB.WT mice, Time (min) 18",3.6
same,"Head-twitch response, Mean","mice; ext fig 7c, TrkB.WT mice, Time (min) 20",4
same,"Head-twitch response, Mean","mice; ext fig 7c, TrkB.WT mice, Time (min) 22",4.6
same,"Head-twitch response, Mean","mice; ext fig 7c, TrkB.WT mice, Time (min) 24",4.8
same,"Head-twitch response, Mean","mice; ext fig 7c, TrkB.WT mice, Time (min) 26",2
same,"Head-twitch response, Mean","mice; ext fig 7c, TrkB.WT mice, Time (min) 28",3.2
same,"Head-twitch response, Mean","mice; ext fig 7c, TrkB.WT mice, Time (min) 30",2.6
same,"Head-twitch response, Mean","mice; ext fig 7c, TrkB.Y433F mice, Time (min) 2",3
same,"Head-twitch response, Mean","mice; ext fig 7c, TrkB.Y433F mice, Time (min) 4",6.2
same,"Head-twitch response, Mean","mice; ext fig 7c, TrkB.Y433F mice, Time (min) 6",9.4
same,"Head-twitch response, Mean","mice; ext fig 7c, TrkB.Y433F mice, Time (min) 8",8.8
same,"Head-twitch response, Mean","mice; ext fig 7c, TrkB.Y433F mice, Time (min) 10",6.8
same,"Head-twitch response, Mean","mice; ext fig 7c, TrkB.Y433F mice, Time (min) 12",6.2
same,"Head-twitch response, Mean","mice; ext fig 7c, TrkB.Y433F mice, Time (min) 14",4.2
same,"Head-twitch response, Mean","mice; ext fig 7c, TrkB.Y433F mice, Time (min) 16",5
same,"Head-twitch response, Mean","mice; ext fig 7c, TrkB.Y433F mice, Time (min) 18",3.2
same,"Head-twitch response, Mean","mice; ext fig 7c, TrkB.Y433F mice, Time (min) 20",2.6
same,"Head-twitch response, Mean","mice; ext fig 7c, TrkB.Y433F mice, Time (min) 22",3
same,"Head-twitch response, Mean","mice; ext fig 7c, TrkB.Y433F mice, Time (min) 24",3.2
same,"Head-twitch response, Mean","mice; ext fig 7c, TrkB.Y433F mice, Time (min) 26",2.2
same,"Head-twitch response, Mean","mice; ext fig 7c, TrkB.Y433F mice, Time (min) 28",1.8
same,"Head-twitch response, Mean","mice; ext fig 7c, TrkB.Y433F mice, Time (min) 30",2.4
same,"Head-twitch response, Mean","mice; ext fig 7d, Time (min) 2",0.2
same,"Head-twitch response, Mean","mice; ext fig 7d, Time (min) 4",2.2
same,"Head-twitch response, Mean","mice; ext fig 7d, Time (min) 6",2.6
same,"Head-twitch response, Mean","mice; ext fig 7d, Time (min) 8",4.2
same,"Head-twitch response, Mean","mice; ext fig 7d, Time (min) 10",3
same,"Head-twitch response, Mean","mice; ext fig 7d, Time (min) 12",3.8
same,"Head-twitch response, Mean","mice; ext fig 7d, Time (min) 14",3.2
same,"Head-twitch response, Mean","mice; ext fig 7d, Time (min) 16",2.2
same,"Head-twitch response, Mean","mice; ext fig 7d, Time (min) 18",2.4
same,"Head-twitch response, Mean","mice; ext fig 7d, Time (min) 20",1.8
same,"Head-twitch response, Mean","mice; ext fig 7d, Time (min) 22",1.2
same,"Head-twitch response, Mean","mice; ext fig 7d, Time (min) 24",2.2
same,"Head-twitch response, Mean","mice; ext fig 7d, Time (min) 26",1.4
same,"Head-twitch response, Mean","mice; ext fig 7d, Time (min) 28",1.8
same,"Head-twitch response, Mean","mice; ext fig 7d, Time (min) 30",0.8
same,"Mean Diff., figure 7d, Vehicle:Saline vs. Vehicle:LSD","mice; saline minus LSD, Bonferroni's multiple comparisons test",-30.6
same,"Mean Diff., figure 7d, M100907:Saline vs. M100907:LSD","mice; with M100907, saline minus LSD, Bonferroni's multiple comparisons test",-0.2
COc1cccc([C@H](O)C2CCN(CCc3ccc(F)cc3)CC2)c1OC [M100907],effect on LSD-induced head-twitch response,"mice; M100907 0.5 mg kg^−1, 30 min before LSD",blocked
same,"Mean, figure 7d (head-twitch response)",mice; M100907:Saline group,0.2
same,"Head-twitch response, Mean","mice; ext fig 7d, Time (min) 2",0.2
same,"Head-twitch response, Mean","mice; ext fig 7d, Time (min) 4",0
same,"Head-twitch response, Mean","mice; ext fig 7d, Time (min) 6",0
same,"Head-twitch response, Mean","mice; ext fig 7d, Time (min) 8",0
same,"Head-twitch response, Mean","mice; ext fig 7d, Time (min) 10",0
same,"Head-twitch response, Mean","mice; ext fig 7d, Time (min) 12",0
same,"Head-twitch response, Mean","mice; ext fig 7d, Time (min) 14",0
same,"Head-twitch response, Mean","mice; ext fig 7d, Time (min) 16",0
same,"Head-twitch response, Mean","mice; ext fig 7d, Time (min) 18",0
same,"Head-twitch response, Mean","mice; ext fig 7d, Time (min) 20",0
same,"Head-twitch response, Mean","mice; ext fig 7d, Time (min) 22",0
same,"Head-twitch response, Mean","mice; ext fig 7d, Time (min) 24",0
same,"Head-twitch response, Mean","mice; ext fig 7d, Time (min) 26",0
same,"Head-twitch response, Mean","mice; ext fig 7d, Time (min) 28",0
same,"Head-twitch response, Mean","mice; ext fig 7d, Time (min) 30",0
same,"Mean Diff., figure 7d, Vehicle:Saline vs. M100907:Saline","mice; vehicle minus M100907, Bonferroni's multiple comparisons test",2.2
"CN(C)CCc1c[nH]c2cccc(O)c12 [PSI, psilocin]",TrkB dimerization,[1],this effect is abolished
same,"TrkB dimerization (PCA), group mean (vehicle = 100)",[1]; 1nM,110.2
same,"TrkB dimerization (PCA), group mean (vehicle = 100)",[1]; 10nM,90.04
same,"TrkB dimerization (PCA), group mean (vehicle = 100)",[1]; 100nM,84.39
same,"TrkB dimerization (PCA), group mean (vehicle = 100)",[1]; 1uM,73.58
